Experimental findings from publication PMC12485897, “Characterization of the thermophilic xylanase Fsa02490Xyn from the hyperthermophile Fervidibacter sacchari belonging to glycoside hydrolase family 10” (FEBS Open Bio, 2025) are described below.

The assay has as its system T1, Fsa02490Xyn.
T1 construct: TAT signal peptide removed (mature 430 residues, 48 kDa); N-terminal 6xHis tag, GB1 solubility tag and TEV site kept (~53 kDa expected); codon-optimized, pET21b, E. coli T7 Express; monomer
The experiment in a line: para-nitrophenol release, absorbance […] nm; Lineweaver-Burk plot. In kind it is biochemical, Fervidibacter sacchari. The conditions noted are these: pH 7.5, 90 °C, 11 min, 0.697 μM enzyme.

What is called Km is the substrate concentration at which the rate is half of its maximum. In the case of `O=[N+]([O-])c1ccc(O[C@@H]2OC[C@@H](O[C@@H]3OC[C@@H](O)[C@H](O)[C@H]3O)[C@H](O)[C@H]2O)cc1` [pNPX2], the Km came to 2.38 mM.
